Measured values reported in patent US20040235855A1, “Phospholipase C inhibitors for use in treating inflammatory disorders” (priority 2003, published 2004).

Assays:
human PLC-β2 = molecular target: T1, human PLC-β2 (Homo sapiens, UniProt Q00722); test: PLC assay using FlashPlates (96-well, immobilized [3H]PIP2 substrate); assay type: biochemical; details: purified recombinant human PLC-β2 or cytosolic human PLC-β2; hydrolysis of [3H]PIP2
T1 construct: made in house; host or cells: Sf9 cells (Spodoptera frugiperda), recombinant baculovirus
Procedure, shortened: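 Purified recombinant human PLC-β2 (Sf9 baculovirus) or cytosolic PLC-β2 from HL-60 cells hydrolysed [3H]PIP2 immobilised on phospholipid FlashPlates. Reactions ran in 50 mM Tris/HCl pH 7.2 with EDTA, KCl, LiCl, 0.04% DOC and 2 mM CaCl2. Activity was read as loss of bound radioactivity by scintillation counting.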

PMA-induced ear edema [1] = test: Acute PMA-induced ear edema mouse model; assay type: in vivo
Source text: The acute PMA-induced ear edema mouse model was used to test compounds of the present […] (as described in Carlson R P, O'Neill-Davis L, Chang J. and Lewis A J, Modulation of Mouse Ear Edema by Cyclooxygenase and Lipoxygenase Inhibitors and Other Pharmacologic Agents, Agents and Actions, 1985, 17:197-204).

PMA-induced ear edema [2] = test: Chronic PMA-induced ear edema mouse model; assay type: in vivo; details: 0.5 mg dose applied topically
Source text: The chronic PMA-induced ear edema mouse model was used to test Compound 38 (as described in Stanley P L, Steiner S, Havens M and Tramposch K M, Mouse Skin Inflammation Induced by Multiple Topical Applications of 12-O-Tetradecanoylphorbol-13-acetate, Skin Pharmacol., 1991, 4: 262-271).

[3] = tested on: zymosan-induced peritonitis; test: Zymosan-induced peritonitis mouse model; assay type: in vivo; details: 30 mpk dose administered i.p.
Source text: The zymosan-induced peritonitis model was used to test Compound 38 (as described in Rao T S, Currie J L, Shaffer A F and Isakson P C, In vivo Characterization of Zymosan-Induced Mouse Peritoneal Inflammation, J. Pharm. Exptl. Ther., 1994, 269: 917-925).

[4] = tested on: adjuvant-induced arthritis; test: Adjuvant-induced arthritis rat model; assay type: in vivo; details: administered i.p.
Source text: The adjuvant-induced arthritis rat model was used to test Compound 38 (as described in Anderson G D, Hauser S D, McGarity K L, Bremer M E, Isakson P C and Gregory S A, Selective Inhibition of Cyclooxygenase (Cox)-2 Reverses Inflammation and Expression of Cox-2 and Interleukein 6 in Rat Adjuvant Arthritis, J. Clin. Invest., 1996, 97:2672-2679).

[5] = tested on: carageenan-induced paw edema; test: Carageenan-induced paw edema rat model; assay type: in vivo
Source text: The carageenan-induced paw edema rat model was used to test Compound 38 (as described in Vinegar R, Truax J F, Selph J L, Johnston P R, Venable A L and McKenzie K K, Pathway to Carrageenan-Induced Inflammation in the Hind Limb of the Rat, Fed. Proc., 1987, 46:118-126).

T1 sequence (Q00722 whole entry): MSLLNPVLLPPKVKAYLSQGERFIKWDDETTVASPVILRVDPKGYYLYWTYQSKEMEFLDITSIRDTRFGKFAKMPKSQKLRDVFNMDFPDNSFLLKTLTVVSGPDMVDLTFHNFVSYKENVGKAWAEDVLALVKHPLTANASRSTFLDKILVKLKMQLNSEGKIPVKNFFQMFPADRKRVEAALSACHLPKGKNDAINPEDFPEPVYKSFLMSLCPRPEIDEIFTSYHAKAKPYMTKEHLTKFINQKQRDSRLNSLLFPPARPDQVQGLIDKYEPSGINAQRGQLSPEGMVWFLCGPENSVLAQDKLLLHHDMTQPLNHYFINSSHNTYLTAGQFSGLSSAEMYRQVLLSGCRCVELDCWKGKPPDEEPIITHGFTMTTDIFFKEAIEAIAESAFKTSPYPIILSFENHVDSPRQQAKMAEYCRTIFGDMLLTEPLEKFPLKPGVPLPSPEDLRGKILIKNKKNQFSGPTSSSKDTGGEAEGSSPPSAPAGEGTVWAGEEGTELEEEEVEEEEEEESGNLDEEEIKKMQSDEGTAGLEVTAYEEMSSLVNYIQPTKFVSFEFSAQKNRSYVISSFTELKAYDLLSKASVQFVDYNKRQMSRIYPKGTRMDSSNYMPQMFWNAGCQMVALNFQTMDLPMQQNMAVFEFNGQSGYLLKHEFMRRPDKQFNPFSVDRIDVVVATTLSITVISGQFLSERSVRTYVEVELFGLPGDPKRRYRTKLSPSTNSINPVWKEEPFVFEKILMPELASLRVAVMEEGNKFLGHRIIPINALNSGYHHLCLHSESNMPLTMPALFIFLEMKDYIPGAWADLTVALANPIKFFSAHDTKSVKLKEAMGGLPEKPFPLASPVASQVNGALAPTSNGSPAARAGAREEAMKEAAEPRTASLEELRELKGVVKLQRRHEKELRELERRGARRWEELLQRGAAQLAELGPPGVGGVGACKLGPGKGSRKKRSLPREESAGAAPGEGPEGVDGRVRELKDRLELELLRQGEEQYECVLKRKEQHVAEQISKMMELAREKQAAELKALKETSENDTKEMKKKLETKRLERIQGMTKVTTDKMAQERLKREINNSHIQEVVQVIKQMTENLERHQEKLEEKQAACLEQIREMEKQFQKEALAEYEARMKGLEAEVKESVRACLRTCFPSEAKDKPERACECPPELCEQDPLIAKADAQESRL

IC50 (human PLC-β2): 2200 nM
Compound: O=C(Nc1cc(C(=O)N2CCNCC2)ccc1N1CCN(C(c2ccccc2)c2ccccc2)CC1)NC1CCCCC1 [Cpd 38, N-cyclohexyl-N′-[2-[4-(diphenylmethyl)-1-piperazinyl]-5-(1-piperazinylcarbonyl)phenyl]-urea]
% Inhibition (PMA-induced ear edema [1]; 5 mpk i.v.): 47% | % Inhibition (PMA-induced ear edema [1]; 30 mpk i.p.): 84% | % Inhibition (PMA-induced ear edema [1]; 30 mpk p.o.): 0% | inhibition (PMA-induced ear edema [2]): 53% | inhibition [3]: about 45% | inhibition in paws [4]: significant inhibition in both paws | inhibition ([5]; 30 mpk dose administered i.p.): 80% | inhibition ([5]; 30 mpk dose administered s.c.): 60%
